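Dose response: 5 concentrations. Exposure: 48 h. Format: 96-well plates. Endpoint: linear interpolation; highest concentration if not reached. GI50 is the concentration that inhibits growth by half. TGI: concentration producing complete growth inhibition.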
Legend:
Assay in all cases: growth of human tumour cells (NCI), 48 h
SN12C renal = tested on: SN12C renal
T-47D breast = tested on: T-47D breast
ACHN renal = tested on: ACHN renal
BT-549 breast = tested on: BT-549 breast
SF-539 CNS = tested on: SF-539 CNS
HT29 colon = tested on: HT29 colon
UO-31 renal = tested on: UO-31 renal
HL-60(TB) leukemia = tested on: HL-60(TB) leukemia
UACC-62 melanoma = tested on: UACC-62 melanoma
NCI-H522 lung = tested on: NCI-H522 lung

Row | Compound | GI50 (SN12C renal) [nM] | TGI (SN12C renal) [µM] | GI50 (T-47D breast) [nM] | TGI (T-47D breast) [µM] | GI50 (ACHN renal) [nM] | TGI (ACHN renal) [µM] | GI50 (BT-549 breast) [nM] | TGI (BT-549 breast) [µM] | GI50 (SF-539 CNS) [nM] | TGI (SF-539 CNS) [nM] | GI50 (HT29 colon) [nM] | TGI (HT29 colon) [µM] | GI50 (UO-31 renal) [nM] | TGI (UO-31 renal) [µM] | GI50 (HL-60(TB) leukemia) [nM] | TGI (HL-60(TB) leukemia) [µM] | GI50 (UACC-62 melanoma) [nM] | TGI (UACC-62 melanoma) [µM] | GI50 (NCI-H522 lung) [nM] | TGI (NCI-H522 lung) [µM]
1 | CN=C1C=CC(=C(c2ccc(N(C)C)cc2)c2ccc(N(C)C)cc2)C=C1 | 163 | 3.04 | 292 | 2.1 | 326 | 1.33 | 265 | 1.28 | 319 | 1840 | 105 | 0.496 | 317 | 1.21 | 217 | 0.519 | 297 | 1.39 | 253 | 0.801
2 | C#C[C@@]1(O)[C@@H](CO)O[C@@H](n2cc(I)c3c(N)ncnc32)[C@@H]1O | 97.6 | > 100 |  | 0.127 | 314 | > 100 | 259 | 4.01 | 378 | 2550 | 23.7 | 4.75 | 90.1 | 3.19 | 46.2 | 0.262 | 615 | 2.78 | 99.3 | 0.6
3 | C1CN(c2nnc(N3CCC3)nn2)C1 |  | 65.8 |  | > 100 |  | > 92.1 |  | > 100 |  | 77600 |  | > 56.2 |  | > 100 |  | > 100 |  | 38.5 |  | 85.2
4 | COc1ccc(/C=C/c2c(C(=O)/C=C/c3ccc(C(F)(F)F)cc3)c(C)nc3ccccc23)cc1 | 2020 | 5.66 | 1310 | 3.78 | 1500 | 2.84 | 1800 | 4 | 1850 | 3340 | 1130 | 6.6 | 1110 | 2.33 | 1920 | 5.67 | 1600 | 3.42 | 1670 | 5.69
5 | O=C(O)/C(Cc1cn[nH]n1)=N\O |  | > 100 |  | > 100 |  | > 100 |  | > 100 |  | > 100000 |  | > 100 |  | > 100 |  | > 100 |  | > 100 |  | > 100
6 | S=C1Cc2c(-c3ccc(Br)cc3)cc(-c3ccccc3)nc2-c2ccccc2N1 |  | 2.97 |  | 7.03 | 867 | 2.35 |  | 18 |  | 12200 |  | 5.81 |  | 4.77 |  | > 100 |  | 5.45 |  | 8.04
7 | COc1ccc(-c2cncn2-c2cc(OC)c(OC)c(OC)c2)cc1 | 527 | > 100 | 3120 | > 100 | 366 | 49.4 | 249 | 52 | 67.1 | 460 | 153 | > 100 | 93.6 | 18.2 | 1720 | 3.59 | 124 | > 33.7 | 19 | 0.283
8 | COc1cccc2cc(N(C)c3nc(C)nc4c3CCC4)ccc12 | < 10 | 22.4 | 5380 | 41.8 | < 10 | 13.7 | < 10 | 11 | < 10 | < 10 | < 10 | 0.608 | < 10.4 | 18.1 | < 10 | 0.0103 |  | 18.1 | < 10 | < 0.01

— PubChem BioAssay (NCI)
